Results on 34 compounds are retold here after patent US20130040944A1, “MGLUR4 ALLOSTERIC POTENTIATORS, COMPOSITIONS, AND METHODS OF TREATING NEUROLOGICAL DYSFUNCTION” (VANDERBILT UNIVERSITY, priority 2009, published 2013).

The experiment deals with human mGluR4 (Homo sapiens, UniProt Q14833). In words: potentiation of human mGluR4 in transfected CHO cells, Ca2+-sensitive dye fluorescence, EC20 agonist. The note with it: for Emax: CHO, read-out: % Glu Max.
Setting [1] is: EC50 (nM), potentiation of EC20 agonist response, Table I.
Where [2] appears, read: hEC50, human mGluR4 potentiation, unit inferred.

Sequence of human mGluR4 (Q14833 33-912): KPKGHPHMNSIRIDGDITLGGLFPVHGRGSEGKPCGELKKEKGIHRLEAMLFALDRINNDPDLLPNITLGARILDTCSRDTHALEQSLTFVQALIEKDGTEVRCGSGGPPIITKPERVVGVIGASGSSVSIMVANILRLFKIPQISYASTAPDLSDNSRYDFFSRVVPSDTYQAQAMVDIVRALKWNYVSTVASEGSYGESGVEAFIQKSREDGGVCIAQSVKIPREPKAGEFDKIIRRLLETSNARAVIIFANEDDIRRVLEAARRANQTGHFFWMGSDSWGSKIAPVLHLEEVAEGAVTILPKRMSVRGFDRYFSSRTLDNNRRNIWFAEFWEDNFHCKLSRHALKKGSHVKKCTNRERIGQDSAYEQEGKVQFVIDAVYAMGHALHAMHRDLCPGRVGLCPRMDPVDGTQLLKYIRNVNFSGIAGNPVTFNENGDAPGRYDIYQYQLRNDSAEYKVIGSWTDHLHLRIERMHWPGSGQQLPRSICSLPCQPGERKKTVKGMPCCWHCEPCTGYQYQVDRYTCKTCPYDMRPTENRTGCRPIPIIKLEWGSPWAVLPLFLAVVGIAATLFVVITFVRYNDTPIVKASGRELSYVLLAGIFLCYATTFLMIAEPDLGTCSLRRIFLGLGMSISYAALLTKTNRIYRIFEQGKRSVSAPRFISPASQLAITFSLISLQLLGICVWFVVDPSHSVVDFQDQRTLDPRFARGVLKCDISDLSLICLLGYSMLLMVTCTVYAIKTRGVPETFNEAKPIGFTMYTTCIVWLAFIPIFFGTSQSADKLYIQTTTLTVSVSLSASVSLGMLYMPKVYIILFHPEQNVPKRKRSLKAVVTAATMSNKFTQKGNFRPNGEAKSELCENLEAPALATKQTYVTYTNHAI

The EC50 is the concentration that produces a half-maximal response. Regarding `O=C(Nc1ccn(S(=O)(=O)Cc2ccccc2)c1)c1ccco1` [Example 1, N-(1-(benzylsulfonyl)-1H-pyrrol-3-yl)furan-2-carboxamide], the Emax was 227%. For the same compound, the EC50 under setting [1] was 6410 nM. For `O=C(Nc1ccn(S(=O)(=O)Cc2ccccc2)c1)c1ccccn1` [Example 2, N-(1-(benzylsulfonyl)-1H-pyrrol-3-yl)picolinamide] the same measures were 275% and 562 nM.

`COc1cccc(C(=O)Nc2ccn(S(=O)(=O)Cc3ccccc3)c2)c1` [Example 3, N-(1-(benzylsulfonyl)-1H-pyrrol-3-yl)-3-methoxybenzamide]: the Emax came out at 39%. The EC50 under setting [1] is above 20000 nM. For `O=C(Nc1ccn(S(=O)(=O)c2ccccc2)c1)c1ccccn1` [Example 4, N-(1-(phenylsulfonyl)-1H-pyrrol-3-yl)picolinamide] the same measures were 59% and 280 nM. For `O=C(Nc1ccn(S(=O)(=O)c2ccccc2)c1)c1ccccc1` [Example 5, N-(1-(phenylsulfonyl)-1H-pyrrol-3-yl)benzamide], in that order: 93% and 8170 nM.

On to `O=C(Nc1ccn(S(=O)(=O)Cc2ccccc2)c1)c1ccccc1` [Example 6, N-(1-(benzylsulfonyl)-1H-pyrrol-3-yl)benzamide], for which the Emax came out at 55%. Besides, the EC50 under setting [1] is 951 nM. Take `O=C(Nc1ccn(S(=O)(=O)c2ccccc2F)c1)c1ccccn1` [Example 8]: the Emax was 116%. Moreover, the EC50 under setting [1] was 174 nM. For `Cc1ccccc1S(=O)(=O)n1ccc(NC(=O)c2ccccn2)c1` [Example 9], in that order: 67% and 198 nM. For `O=C(Nc1ccn(S(=O)(=O)c2ccccc2C(F)(F)F)c1)c1ccccn1` [Example 10], in that order: 101% and 526 nM. As to `O=C(Nc1ccn(S(=O)(=O)c2ccccc2Cl)c1)c1ccccn1` [Example 11], the Emax amounted to 91%. In addition, the EC50 under setting [1] is 222 nM.

As to `N#Cc1cccc(CS(=O)(=O)n2ccc(NC(=O)c3ccccn3)c2)c1` [Example 26], the Emax is 141%. Also, under setting [1], the EC50 amounted to 5080 nM.

With `O=C(Nc1ccn(S(=O)(=O)Cc2ccc(Cl)c(Cl)c2)c1)c1ccccn1` [Example 34], the Emax was determined as 159%. In the case of `O=C(Nc1ccn(S(=O)(=O)c2ccc3ccccc3c2)c1)c1ccccn1` [Example 36], the Emax turned out to be 58%. Besides, under setting [1], the EC50 was above 10000 nM.

In the case of `O=C(Nc1ccn(S(=O)(=O)Cc2ccccc2)c1)c1cc(F)ccn1` [Example 39, N-(1-(benzylsulfonyl)-1H-pyrrol-3-yl)-4-fluoropicolinamide], the Emax was 35%. In addition, the EC50 under setting [1] was found to be 369 nM. For `O=C(Nc1ccn(S(=O)(=O)CCc2ccccc2)c1)c1ccccn1` [Example 40, N-(1-(phenethylsulfonyl)-1H-pyrrol-3-yl)picolinamide] the same measures were 152% and 483 nM. As for `O=C(Nc1ccn(S(=O)(=O)Cc2ccccc2)c1)c1cccc(F)n1` [Example 41, N-(1-(benzylsulfonyl)-1H-pyrrol-3-yl)-6-fluoropicolinamide], the Emax worked out at 76%. The EC50 under setting [1] was determined as 574 nM. For `O=C(Nc1ccn(S(=O)(=O)Cc2ccccc2)c1)c1cscn1` [Example 42, N-(1-(benzylsulfonyl)-1H-pyrrol-3-yl)thiazole-4-carboxamide] the same measures were 129% and 4620 nM.

For the compound `Cc1cccc(C(=O)Nc2ccn(S(=O)(=O)Cc3ccccc3)c2)n1` [Example 43, N-(1-(benzylsulfonyl)-1H-pyrrol-3-yl)-6-methylpicolinamide], the Emax amounted to 90%. Moreover, the EC50 under setting [1] is 9540 nM. For `O=C(Nc1ccn(S(=O)(=O)Cc2ccccc2)c1)c1nccs1` [Example 44, N-(1-(benzylsulfonyl)-1H-pyrrol-3-yl)thiazole-2-carboxamide], in that order: 175% and 4380 nM.

As for `O=C(Nc1ccn(S(=O)(=O)Cc2ccccc2)c1)c1ccncn1` [Example 45, N-(1-(benzylsulfonyl)-1H-pyrrol-3-yl)pyrimidine-4-carboxamide], the Emax came to 57%. Moreover, under setting [1], the EC50 is above 20000 nM. Take `Cc1ccc(CS(=O)(=O)n2ccc(NC(=O)c3ccccn3)c2)cc1` [Example 47, N-(1-((4-methylbenzyl)sulfonyl)-1H-pyrrol-3-yl)picolinamide]: the 50% effective concentration (EC50) under setting [2] turned out to be 280 nM.

On to `O=C(Nc1ccn(S(=O)(=O)c2ccccc2)c1)c1nccs1` [Example 50, N-(1-(phenylsulfonyl)-1H-pyrrol-3-yl)thiazole-2-carboxamide], for which the EC50 under setting [2] came to 2680 nM.

As to `O=C(Nc1ccn(S(=O)(=O)Cc2ccccc2Cl)c1)c1nccs1` [Example 52, N-(1-((2-chlorobenzyl)sulfonyl)-1H-pyrrol-3-yl)thiazole-2-carboxamide], the EC50 under setting [2] was found to be 767 nM. With `Cc1cccc(S(=O)(=O)n2ccc(NC(=O)c3nccs3)c2)c1` [Example 53, N-(1-(m-tolylsulfonyl)-1H-pyrrol-3-yl)thiazole-2-carboxamide], the EC50 under setting [2] is 767 nM. The same measure, in the same setting: to `CC(=O)Oc1ccccc1C(=O)Nc1ccn(S(=O)(=O)c2cccc(C)c2)c1` [Example 54, 2-((1-(m-tolylsulfonyl)-1H-pyrrol-3-yl)carbamoyl)phenyl acetate] belongs 1720 nM; to `O=C(Nc1ccn(S(=O)(=O)Cc2ccc(F)cc2F)c1)c1nccs1` [Example 55, N-(1-((2,4-difluorobenzyl)sulfonyl)-1H-pyrrol-3-yl)thiazole-2-carboxamide], 1910 nM. As to `O=C(Nc1ccn(S(=O)(=O)Cc2ccc(F)cc2F)c1)c1ccco1` [Example 56, N-(1-((2,4-difluorobenzyl)sulfonyl)-1H-pyrrol-3-yl)furan-2-carboxamide], the EC50 under setting [2] is 3690 nM. Turning to `O=C(Nc1ccn(S(=O)(=O)Cc2ccc(F)cc2Cl)c1)c1ccccn1` [Example 57, N-(1-((2-chloro-4-fluorobenzyl)sulfonyl)-1H-pyrrol-3-yl)picolinamide], the EC50 under setting [2] stood at 125 nM.

For `CC(C)(C)c1ccc(S(=O)(=O)n2ccc(NC(=O)c3ccccn3)c2)cc1` [Example 58, N-(1-((4-(tert-butyl)phenyl)sulfonyl)-1H-pyrrol-3-yl)picolinamide], under setting [2], the EC50 came out at 16800 nM. On to `O=C(Nc1ccn(S(=O)(=O)c2ccc(F)c(F)c2)c1)c1ccccn1` [Example 59, N-(1-((3,4-difluorophenyl)sulfonyl)-1H-pyrrol-3-yl)picolinamide], for which the EC50 under setting [2] is 379 nM. Same read-out and setting: then `O=C(Nc1ccn(S(=O)(=O)Cc2ccc(F)cc2Cl)c1)c1nccs1` [Example 60, N-(1-((2-chloro-4-fluorobenzyl)sulfonyl)-1H-pyrrol-3-yl)thiazole-2-carboxamide], with 132 nM.

As to `O=C(Nc1ccn(S(=O)(=O)Cc2ccc(F)cc2Cl)c1)c1ccco1` [Example 61, N-(1-((2-chloro-4-fluorobenzyl)sulfonyl)-1H-pyrrol-3-yl)furan-2-carboxamide], the EC50 under setting [2] is 320 nM. On the same count and under the same terms, then `O=C(Nc1ccn(S(=O)(=O)Cc2ccccc2Cl)c1)c1cscn1` [Example 62, N-(1-((2-chlorobenzyl)sulfonyl)-1H-pyrrol-3-yl)thiazole-4-carboxamide], with 492 nM; and `O=C(Nc1ccn(S(=O)(=O)Cc2ccccc2)c1)c1nccs1` [Example 63, N-(1-(benzylsulfonyl)-1H-pyrrol-3-yl)thiazole-2-carboxamide], with 2760 nM.
